Where two headings read alike, the source gives them in different places.
Experiments:
[1] = biological target: recombinant human EGFR exon 19 deletion/C797S double mutant protein (Homo sapiens (Human), UniProt P00533, C797S/DEL746-750); assay: Biological Activity Assay C: biochemical assay against EGFR exon 19 deletion/C797S protein (EGFR d19/CS)
Description: In Row A of a 384-well polypropylene plate, was added 48 μL of DMSO. In wells A1 and A24, were added 12 μL of DMSO. […] To a well in Row A were added 12 μL of each 10 mM test compound stock (100% DMSO). […] The final intermediate dilution plate contained 4×16-point compound serial dilutions in assay buffer. The DMSO concentration was 10%. The intermediate compound dilution plate was transferred to the Bravo and the “5 uL dispense into ARP.pro” protocol was run. To the black low volume assay ready plates, were added 5 μL of 40 uM Phosphosens peptide sensor/4 mM ATP working solution to each well. […] To column 24, was added 10 μL of assay buffer. The final DMSO concentration was 2.5%. […] The plates were sealed with the TopSeal-A Plus plate seals. […] Set for 90 cycles with 120 second interval. […] The slope of each curve was constructed using Dotmatics in each well, and each IC50s was calculated using a 4-parameter fit model.

[2] = tested on: Ba/F3_EGFR WT cells; assay: Biological Activity Assay D: BaF3 cell proliferation assay, EGFR wild-type (BaF3 WT); type: cell-based; details: Ba/F3 EGFR, read-out: BaF3 WT IC50
Description: (§1) One frozen vial of cells should be thawed into one T25 flask in 10 mL media. Keep the flask upright in the incubator.
(§2) Method: One frozen vial of cells was thawed into one T25 flask in 10 mL media and the flask was kept upright in the incubator. Cells were split 1:10 every two to three days when cells reached confluency of around 1×10^6 cells/mL. Bravo protocol files were used with Greiner 384-well plates for all steps of compound preparation, cell plating and compound addition. […] 16 μL of DMSO were added (for compounds starting at 20 μM) or 28 μL DMSO (for compounds starting at 5 μM) to 96-well V-bottom polypropylene plate: wells 1A-1H (8 compounds/plate). […] 20 μL DMSO were added to the remainder of the wells (columns 2-12) in the 96-well V-bottom plate. A Bravo liquid handler was used to make 1:3 serial dilutions from columns 1 to 11 (12 remains as DMSO only) to prepare the DMSO dilution plate. 144 μL media were added to each well of a new 96-well V-bottom polypropylene plate to prepare the intermediate dilution plate. A Bravo or 96-head Integra liquid handler was used to add and mix 6 μL of test compound from the DMSO dilution plate to the intermediate dilution plate. (1:25 dilution). Cells were transferred from a flask into a 50 mL conical, vortex gently and the number of cells were counted, with a target cell number of about 1×10^6 cells per mL. The cells were diluted in culture medium in 50 mL conical or T25 flask, and the cell suspension was added to BRAVO reservoir and then use Bravo protocol to plate the appropriate number of cells shown below in 36 μl of medium per well as follows: Ba/F3-WT-EGFR 2000 cells per well of a 384 well plate; Ba/F3-LR/CS-EGFR 2000 cells per well of a 384 well plate; and Ba/F3-d19/CS-EGFR 1500 cells per well of a 384 well plate. An extra 10 mL of dead volume was utilized in each reservoir.
(§3) Using a Bravo liquid handler, 4 μl of test compound solution was added per well from the intermediate dilution plate to plated cells (1:10 dilution from the intermediate plate, final compound dilution 1:250 and final DMSO concentration per well is 0.4%). Using the 96 BRAVO Head, 25 μl were aspirated from the intermediate dilution plate and 4 μl each were dispensed into 4 wells (square pattern) in the 384-well plate. Any remaining test compound is dispensed into a secondary plate to prevent cross contamination of cells in the intermediate compound plate. After the compounds were added, the plate was shaken at 600 rpm gently for 60 see, and the plates were incubated in a tissue culture incubator, 37° C., 5% CO2, for ˜ 72 hours. After incubation, CTG 2.0 reagent was allowed to equilibrate to room temperature (˜3 hours) and cells to reach room temperature (˜10-15 minutes) and reagent was added to cells (40 μL/well) using a Bravo liquid handler. The plates were shaken to allow proper mixing (˜5 min) and let settle for 10 minutes and were read on Tecan plate reader using the appropriate luminescence method. Data from plate reader was transferred to an excel file and entered directly into Dotmatics using the protocols under EGFR Project/Cell Proliferation/named: “BaF3_EGFRwt_CP”, “BaF3_EGFR_d19/CS_CP”, “BaF3_EGFR_LR/CS_CP”. Curves were fit with a 4-parameter model and IC50s calculated by the Dotmatics software. DMSO wells were averaged to define the high control (100% growth). The average of the highest concentration of the positive control compound (afatinib) was used to define the 0% growth and used to lock the bottom of the curves. The tops of the curves were not fixed.

[3] = tested on: BaF3_EGFR LR/CS cells; assay: Biological Activity Assay D: BaF3 cell proliferation assay, EGFR L858R/C797S mutant (BaF3 LR/CS); type: cell-based; details: Ba/F3 EGFR, read-out: BaF3 LR/CS IC50
Description: as §1, §2, §3

[4] = tested on: BaF3_EGFR d19/CS cells; assay: Biological Activity Assay D: BaF3 cell proliferation assay, EGFR exon 19 deletion/C797S (BaF3 d19/CS); type: cell-based; details: Ba/F3 EGFR, read-out: BaF3 d19/CS IC50
Description: as §1, §2, §3

[5] = Ba/F3_EGFR WT cells, ~72 hours, CellTiter-Glo
[6] = BaF3_EGFR LR/CS cells, ~72 hours, CellTiter-Glo
[7] = BaF3_EGFR d19/CS cells, ~72 hours, CellTiter-Glo

Chain of recombinant human EGFR exon 19 deletion/C797S double mutant protein (P00533 other isoform, or with tags, fused parts or gaps C797S/del 1-668/del 746-750 limits assumed): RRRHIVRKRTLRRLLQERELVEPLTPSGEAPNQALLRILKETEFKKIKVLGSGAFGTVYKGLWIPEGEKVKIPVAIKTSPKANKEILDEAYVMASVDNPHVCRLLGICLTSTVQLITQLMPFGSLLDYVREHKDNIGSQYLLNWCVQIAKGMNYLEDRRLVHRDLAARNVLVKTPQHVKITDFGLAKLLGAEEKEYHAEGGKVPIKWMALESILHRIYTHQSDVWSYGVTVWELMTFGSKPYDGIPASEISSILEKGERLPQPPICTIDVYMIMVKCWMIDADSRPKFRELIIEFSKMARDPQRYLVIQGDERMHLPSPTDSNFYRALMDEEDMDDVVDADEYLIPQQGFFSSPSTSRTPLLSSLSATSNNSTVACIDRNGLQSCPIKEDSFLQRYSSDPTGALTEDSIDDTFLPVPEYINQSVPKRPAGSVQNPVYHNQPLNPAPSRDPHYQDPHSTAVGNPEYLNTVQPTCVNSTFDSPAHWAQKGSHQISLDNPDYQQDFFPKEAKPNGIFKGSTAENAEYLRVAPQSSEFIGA

| SMILES | IC50 [1] | IC50 [2, 5] | IC50 [3, 6] | IC50 [4, 7] | IC50 ([2]; 72 h) | IC50 ([3]; 72 h) | IC50 ([4]; 72 h) |
| --- | --- | --- | --- | --- | --- | --- | --- |
| O=S1(=O)CC(n2cc(-c3ncnc4oc(-c5ccncc5)cc34)c(-c3ccc(F)cc3)n2)C1 [Example 165, 3-{3-(4-fluorophenyl)-4-[6-(pyridin-4-yl)furo[2,3-d]pyrimidin-4-yl]-1H-pyrazol-1-yl}-1λ6-thietane-1,1-dione] | 0.26 nM | 1090 nM | 20.6 nM | 37 nM | – | – | – |
| NC(=O)CCCn1cc(-c2ncnc3oc(-c4ccccc4)cc23)c(-c2ccc(F)cc2)n1 [Example 147, 4-[3-(4-Fluorophenyl)-4-(6-phenylfuro[2,3-d]pyrimidin-4-yl)-1H-pyrazol-1-yl]butanamide] | 0.26 nM | 1380 nM | 73.3 nM | 68.6 nM | – | – | – |
| CS(=O)(=O)[C@H]1CC[C@@H](n2cc(-c3ncnc4oc(-c5ccccc5)cc34)c(-c3ccc(F)cc3)n2)C1 (single isomer, unassigned) [Example 193] | 1.64 nM | 3040 nM | 174 nM | 259 nM | – | – | – |
| Cc1cccc(-c2cc3c(-c4cn(C5CS(=O)(=O)C5)nc4-c4ccc(F)cc4)ncnc3o2)n1 [Example 253, 3-{3-(4-fluorophenyl)-4-[6-(6-methylpyridin-2-yl)furo[2,3-d]pyrimidin-4-yl]-1H-pyrazol-1-yl}-16-thietane-1,1-dione] | 0.2 nM | – | – | – | 7740 nM | 51.6 nM | 87.7 nM |
| CC(=O)NCCCn1cc(-c2ncnc3oc(-c4ccccc4)cc23)c(-c2ccc(F)cc2)n1 [Example 141, N-{3-[3-(4-Fluorophenyl)-4-(6-phenylfuro[2,3-d]pyrimidin-4-yl)-1H-pyrazol-1-yl]propyl}acetamide] | 0.25 nM | – | – | – | 921 nM | 43.6 nM | 66.1 nM |
| Fc1ccc(-c2nn(C3CCCOC3)cc2-c2ncnc3oc(-c4ccccc4)cc23)cc1 (racemic) [Example 122, 4-(3-(4-Fluorophenyl)-1-(tetrahydro-2H-pyran-3-yl)-1H-pyrazol-4-yl)-6-phenylfuro[2,3-d]pyrimidine] | 0.55 nM | 1850 nM | 68 nM | 114 nM | – | – | – |
| Fc1ccc(-c2nn(C[C@H]3C[C@H](F)C3)cc2-c2ncnc3oc(-c4ccccc4)cc23)cc1 [Example 124, 4-[1-{[(1r,3r)-3-fluorocyclobutyl]methyl}-3-(4-fluorophenyl)-1H-pyrazol-4-yl]-6-phenylfuro[2,3-d]pyrimidine] | 3.02 nM | 4270 nM | 230 nM | 611 nM | – | – | – |
| CC(=O)N1CC=C(c2nc3c(-c4cn(C5CS(=O)(=O)C5)nc4-c4ccc(F)cc4)ncnc3[nH]2)CC1 [Example 191, 3-{4-[8-(1-acetyl-1,2,3,6-tetrahydropyridin-4-yl)-9H-purin-6-yl]-3-(4-fluorophenyl)-1H-pyrazol-1-yl}-1λ6-thietane-1,1-dione] | 0.65 nM | > 20000 nM | > 20000 nM | > 20000 nM | – | – | – |

Now from value to compound, other results behind:

| IC50 [1] | IC50 [2, 5] | IC50 [3, 6] | IC50 [4, 7] | SMILES | IC50 ([2]; 72 h) | IC50 ([3]; 72 h) | IC50 ([4]; 72 h) |
| --- | --- | --- | --- | --- | --- | --- | --- |
| 1.73 nM | 12400 nM | 1500 nM | 1280 nM | CNC(=O)c1cncc(-c2cc3c(-c4cn(C5CS(=O)(=O)C5)nc4-c4ccc(F)cc4)ncnc3o2)c1 [Example 239, 5-{4-[1-(1,1-dioxo-1λ6-thietan-3-yl)-3-(4-fluorophenyl)-1H-pyrazol-4-yl]furo[2,3-d]pyrimidin-6-yl}-N-methylpyridine-3-carboxamide] | – | – | – |
| 0.89 nM | 1740 nM | 212 nM | 133 nM | O=S1(=O)CC(n2cc(-c3ncnc4oc(-c5ccncn5)cc34)c(-c3ccc(F)cc3)n2)C1 [Example 196, 3-{3-(4-fluorophenyl)-4-[6-(pyrimidin-4-yl)furo[2,3-d]pyrimidin-4-yl]-1H-pyrazol-1-yl}-1λ6-thietane-1,1-dione] | – | – | – |
| 0.35 nM | 1920 nM | 17 nM | 33 nM | CC(=O)N1C=C(c2cc3c(-c4cn(CC(C)(C)O)nc4-c4ccc(F)cc4)ncnc3o2)CCC1 [Example 260, 1-[5-{4-[3-(4-fluorophenyl)-1-(2-hydroxy-2-methylpropyl)-1H-pyrazol-4-yl]furo[2,3-d]pyrimidin-6-yl}-3,4-dihydropyridin-1 (2H)-yl]ethan-1-one] | – | – | – |
| 6.02 nM | > 20000 nM | 2500 nM | 1110 nM | O=S1(=O)CC(n2cc(-c3ncnc4oc(C#CC5CCC5)cc34)c(-c3ccc(F)cc3)n2)C1 [Example 206, 3-{4-[6-(cyclobutylethynyl)furo[2,3-d]pyrimidin-4-yl]-3-(4-fluorophenyl)-1H-pyrazol-1-yl}-1λ6-thietane-1,1-dione] | – | – | – |
| 0.67 nM | 3760 nM | 292 nM | 169 nM | CNC(=O)c1ccccc1-c1cc2c(-c3cn(C4CS(=O)(=O)C4)nc3-c3ccc(F)cc3)ncnc2o1 [Example 229, 2-{4-[1-(1,1-dioxo-1λ6-thietan-3-yl)-3-(4-fluorophenyl)-1H-pyrazol-4-yl]furo[2,3-d]pyrimidin-6-yl}-N-methylbenzamide] | – | – | – |
| 0.63 nM | 2670 nM | 53.3 nM | 42.3 nM | CC1(C)CC(n2cc(-c3ncnc4oc(-c5ccccc5)cc34)c(-c3ccc(F)cc3)n2)CO1 (racemic) [Example 227, 4-[1-(5,5-dimethyloxolan-3-yl)-3-(4-fluorophenyl)-1H-pyrazol-4-yl]-6-phenylfuro[2,3-d]pyrimidine] | – | – | – |
| 0.291 nM | 834 nM | 22.9 nM | 24.8 nM | Cn1cnc(-c2cc3c(-c4cn(C5CC5(F)F)nc4-c4ccc(F)cc4)ncnc3o2)c1 (single isomer, unassigned) [Example 273] | – | – | – |
| 0.35 nM | 886 nM | 18.3 nM | 20.1 nM | Fc1ccc(-c2nn([C@@H]3CCOC[C@@H]3F)cc2-c2ncnc3oc(-c4ccccc4)cc23)cc1 (single isomer, unassigned) [Example 211] | – | – | – |
| 0.06 nM | 876 nM | 10.6 nM | 26.9 nM | N=[S@]1(=O)CC[C@H](n2cc(-c3ncnc4oc(-c5ccccc5)cc34)c(-c3ccc(F)cc3)n2)C1 (single isomer, unassigned) [Example 246] | – | – | – |
| 0.31 nM | 3210 nM | 82.1 nM | 69.9 nM | Cc1ccccc1-c1cc2c(-c3cn(C4CS(=O)(=O)C4)nc3-c3ccc(F)cc3)ncnc2o1 [Example 245, 3-{3-(4-fluorophenyl)-4-[6-(2-methylphenyl)furo[2,3-d]pyrimidin-4-yl]-1H-pyrazol-1-yl}-16-thietane-1,1-dione] | – | – | – |

From patent publication US20250034159A1, “INHIBITORS OF EPIDERMAL GROWTH FACTOR RECEPTOR” (ORIC Pharmaceuticals, Inc., priority 2021, published 2025)
